Publication PMC6920042 (Nature chemical biology, 2019)

Assays:
Staphylococcus carnosus = settings: before femB mutation; cited from earlier work
[1] = system: Staphylococcus carnosus femB mutant; settings: cited from earlier work
[2] = NMR CSP residual binding of SH3b mutant domains to P4 ligand; settings: 32 equivalents
[3] = NMR CSP residual binding of SH3b mutant domains to G5 ligand; settings: 32 equivalents

lysostaphin: bacteriolytic enzyme produced and secreted by Staphylococcus simulans biovar staphylolyticus
MIC (Staphylococcus carnosus): 0.01 µg/mL | increase in the MIC values associated with femB mutation ([1]; femB mutant vs parent): 3000 fold | MIC ([1]; femB mutant): 32 µg/mL

B1: W489L: His-tagged lysostaphin SH3b domain with W489L substitution, for NMR (protein)
chain: SESASFTPNTDIITRTTGPFRSMPQSGVLKAGQTIHYDEVMKQDGHVWVGYTGNSGQRIYLPVRTWNKSTNTLGVLL
modifications: left off: His-tag, N-terminal, kept
residual binding (ratio of chemical shift changes of mutant to WT, averaged over all amino acids) [2]: 6.6%

B2: N405A: His-tagged lysostaphin SH3b domain with N405A substitution, for NMR (protein)
chain: AKYGTLYKSESASFTPNTDIITRTTGPFRSMPQSGVLKAGQTIHYDEVMKQDGHVWVGYTGNSGQRIYLPVRTWNKS
modifications: left off: His-tag, N-terminal, kept
residual binding (ratio of chemical shift changes of mutant to WT, averaged over all amino acids) [3]: 16%

B3: R427M: His-tagged lysostaphin SH3b domain with R427M substitution, for NMR (protein)
chain: SESASFTPNTDIITMTTGPFRSMPQSGVLKAGQTIHYDEVMKQDGHVWVGYTGNSGQRIYLPVRTWNKS
modifications: left off: His-tag, N-terminal, kept
residual binding (ratio of chemical shift changes of mutant to WT, averaged over all amino acids) [2]: 1.6%
